{
  "source": "patent US4988681A",
  "about": "“Phosphinic acid derivatives” (Banyu Pharmaceutical Co., Ltd., priority 1988, dated 1991)",
  "key": {"[1]": {"molecular_target": "T1, porcine kidney dehydropeptidase I (Sus scrofa, UniProt P22412)", "T1 construct": "Frozen porcine kidney cortex was homogenized; from tissue; host or cells: porcine kidney cortex", "T1 sequence (P22412 17-409)": "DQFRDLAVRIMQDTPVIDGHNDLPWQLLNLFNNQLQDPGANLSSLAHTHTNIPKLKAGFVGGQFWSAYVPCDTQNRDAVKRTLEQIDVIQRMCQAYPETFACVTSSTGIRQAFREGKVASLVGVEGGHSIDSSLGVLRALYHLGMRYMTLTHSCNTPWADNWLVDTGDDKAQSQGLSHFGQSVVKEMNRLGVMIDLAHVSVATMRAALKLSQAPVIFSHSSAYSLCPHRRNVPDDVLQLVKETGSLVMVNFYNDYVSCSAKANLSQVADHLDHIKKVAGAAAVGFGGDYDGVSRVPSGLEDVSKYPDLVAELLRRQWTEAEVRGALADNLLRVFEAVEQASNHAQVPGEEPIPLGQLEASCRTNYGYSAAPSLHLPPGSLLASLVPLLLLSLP", "experiment": "Inhibitory activity on porcine kidney dehydropeptidase I (DHP-I)", "format": "biochemical", "conditions": "substrate glycyldehydrophenylalanine, pH 7.4, 37° C., 3 h pre-incubation; read-out: Concentration producing 50% inhibition (IC50)", "experimental": "(1) Inhibitory activity on porcine kidney dehydropeptidase I\n(i) Purification of porcine dehydropeptidase I\nFrozen porcine kidney cortex was homogenized. Butanol (1/4 volume) pre-cooled in a dry ice-acetone bath was added to the homogenate, and the mixture was stirred at 4° C. for 43 hours. The mixture was then dialyzed for one day and centrifuged at 3,000 g for 30 minutes. To the resulting supernatant was added ammonium sulfate. A precipitate at the salt concentration range between 50 and 75% was collected to give a crude enzyme preparation which was re-dissolved in a 50 mM MOPS buffer containing 0.5 M NaCl. The solution was charged on a cilastatin affinity column. Elution with a 50 mM MOPS buffer containing 0.5 M NaCN gave a purified enzyme preparation.\n(ii) Measurement of inhibitory activity\nThe resulting enzyme preparation (3 mU) and an inhibitor were pre-incubatedat 37° C. for 3 hours in 2.7 ml of a 50 mM MOPS buffer (pH 7.4), and then 2.475 ml of the mixture was transferred into a cuvette. As a substrate, 25 microliters of a 5 mM glycyldehydrophenylalanine solution in a 50 mM MOPS buffer (pH 7.4) was added to start an enzymic reaction. The reaction was carried out at 37° C. in a spectrophotometer fitted with a constant-emperature device, and a decrease of the absorbance at 275 nm during a period of 5 minutes was measured. […] An IC50 value was calculated from the percent inhibition data.\nOne unit (U) is defined as the amount of the enzyme which hydrolyzes 1 micromole of the substrate (glycyldehydrophenylalanine) per minute at a substrate concentration of 0.05 mM at 37° C. in a 50 mM MOPS buffer (pH 7.4)."}, "[2]": {"test_system": "nephrotoxicity induced by imipenem", "experiment": "Protective action on nephrotoxicity induced by imipenem in rabbits", "format": "in vivo, male Japanese white rabbits", "conditions": "compound 150 mg/kg + imipenem 150 mg/kg", "experimental": "(3) Protective action on nephrotoxicity induced by carbapenem antibiotics\nTwelve male Japanese white rabbits (18 week-old; body weight 3.19-3.54 kg) were divided into three groups each consisting of 4 animals. Imipenem alone was administered in a dose of 150 mg/kg to a first group. To a second group, a combination of imipenem (150 mg/kg) and the compound No. 2 (150 mg/kg) was administered. To a third group as a control, sterilized physiological saline was administered. In all cases, the administration was effected through the auricular vein. Forty-eight hours later, a blood sample was taken from each of the animals, and the BUN and creatinine values were measured. The kidneys of the rabbits were taken and examined histopathologically."}, "[3]": {"experiment": "Pharmacokinetic evaluation: plasma concentration in rats", "format": "in vivo, Male SD rats", "conditions": "plasma, rat; for AUC: trapezoidal rule; for concentration at 0.5 h: 1/2 h; for concentration at 0.25 h: 1/4 h; for concentration at 5 min: 1/12 h", "experimental": "(4) Pharmacokinetic evaluations\nMale SD rats ([…]) were divided into groups each consisting of three animals. […] Furthermore, cilastatin was intravenously administered to a 14th group as a control group.\nPlasma samples were taken periodically from the carotid artery through a cannula inserted into it at the points of 1/12, 1/4, 1/2, 1, 2, 4, 6, 8 and 24 hours after the administration.\nThe area under the curve (AUC) of the plasma concentration was determined according to the trapezoidal rule."}, "[4]": {"experiment": "Pharmacokinetic evaluation: plasma concentration in dogs", "format": "in vivo, Male beagle dogs", "conditions": "dog; for concentration at 0.5 h: 1/2 h; for concentration at 0.25 h: 1/4 h; for concentration at 5 min: 1/12 h; for AUC: trapezoidal rule", "experimental": "Male beagle dogs (14 month-old) were divided into groups each having three animals. The compound No. 2 was administered intravenously to a first group in a dose of 10 mg/kg. The compound No. 2 was orally administered to a second group in a dose of 10 mg/kg. Then at the points of 1/12, 1/4, 1/2, 1, 2, 4, 6, 8, 24 and 48 hours after the administration, plasma samples were taken periodically from the cephalic vein, and the plasma concentrations of the compounds were measured by an enzyme assay using porcine DHP-I. The results are shown in Table 4-b. The area under the curve (AUC) of the plasma level was determined according to the trapezoidal rule."}, "ddY mice": {"test_system": "ddY mice", "experiment": "Acute toxicity test in mice", "format": "in vivo, Male ddY mice", "conditions": "7 days", "experimental": "(5) Acute toxicity test in mice\nMale ddY mice (4 week-old; body weight 24-26 g) were divided into groups each consisting of 5 animals. The compound No. 2 was intravenously administered to a first group in a dose of 2,000 mg/kg. The compound No. 2 was orally administered to a second group in a dose of 4,000 mg/kg. After the administration, the incidence of death was observed over 7 days after the administration, and the results are shown in Table 5."}, "[5]": {"conditions": "iv 10 mg/kg (cilastatin dose not given)"}},
  "data": [
    {"smiles": "CC(C)CP(=O)(O)C/C(=C\\C1CCCCC1)C(=O)O", "note": "[Compound No. 2, (Z)-3-cyclohexyl-2-(hydroxyisobutylphosphinoyl)methylpropenoic acid]", "values": [
      {"measurement": "IC50", "setting": "[1]", "value": 0.013, "unit": "µM"},
      {"measurement": "Necrosis of the kidney tissue, number of rabbits which necrotized versus number tested", "setting": "[2]", "value": "0/4"},
      {"measurement": "BUN", "setting": "[2]; auricular vein, 48 hours", "value": 16.2, "unit": "mg/100 ml"},
      {"measurement": "Creatinine", "setting": "[2]; auricular vein, 48 hours", "value": 1.49, "unit": "mg/dL"},
      {"measurement": "Necrosis of the kidney tissue", "setting": "[2]; grade in words", "value": "None"},
      {"measurement": "AUC", "setting": "[3]; [5]", "value": 162000, "unit": "ng·h/mL"},
      {"measurement": "AUC", "setting": "[3]; po 10 mg/kg", "value": 24300, "unit": "ng·h/mL"},
      {"measurement": "concentration at 0.5 h", "setting": "[3]; [5]", "value": 53700, "unit": "ng/mL"},
      {"measurement": "concentration at 0.25 h", "setting": "[3]; [5]", "value": 60700, "unit": "ng/mL"},
      {"measurement": "concentration at 5 min", "setting": "[3]; [5]", "value": 84900, "unit": "ng/mL"},
      {"measurement": "concentration at 1 h", "setting": "[3]; iv 10 mg/kg (cilastatin dose not given), N.D.: below the detection limit", "value": 42400, "unit": "ng/mL"},
      {"measurement": "concentration at 2 h", "setting": "[3]; iv 10 mg/kg", "value": 21800, "unit": "ng/mL"},
      {"measurement": "concentration at 4 h", "setting": "[3]; iv 10 mg/kg", "value": 10500, "unit": "ng/mL"},
      {"measurement": "concentration at 6 h", "setting": "[3]; iv 10 mg/kg, N.D.: below the detection limit", "value": 5400, "unit": "ng/mL"},
      {"measurement": "concentration at 8 h", "setting": "[3]; iv 10 mg/kg", "value": 2500, "unit": "ng/mL"},
      {"measurement": "concentration at 0.5 h", "setting": "[3]; po 10 mg/kg", "value": 6800, "unit": "ng/mL"},
      {"measurement": "concentration at 0.25 h", "setting": "[3]; po 10 mg/kg", "value": 6600, "unit": "ng/mL"},
      {"measurement": "concentration at 5 min", "setting": "[3]; po 10 mg/kg", "value": 3300, "unit": "ng/mL"},
      {"measurement": "concentration at 1 h", "setting": "[3]; po 10 mg/kg", "value": 5400, "unit": "ng/mL"},
      {"measurement": "concentration at 2 h", "setting": "[3]; po 10 mg/kg", "value": 3800, "unit": "ng/mL"},
      {"measurement": "concentration at 4 h", "setting": "[3]; po 10 mg/kg", "value": 2100, "unit": "ng/mL"},
      {"measurement": "concentration at 6 h", "setting": "[3]; po 10 mg/kg", "value": 1200, "unit": "ng/mL"},
      {"measurement": "concentration at 8 h", "setting": "[3]; po 10 mg/kg, N.D.: below the detection limit", "value": 400, "unit": "ng/mL"},
      {"measurement": "concentration at 0.5 h", "setting": "[4]; iv 10 mg/kg", "value": 52200, "unit": "ng/mL"},
      {"measurement": "concentration at 0.25 h", "setting": "[4]; iv 10 mg/kg", "value": 71000, "unit": "ng/mL"},
      {"measurement": "concentration at 5 min", "setting": "[4]; iv 10 mg/kg", "value": 87300, "unit": "ng/mL"},
      {"measurement": "concentration at 1 h", "setting": "[4]; iv 10 mg/kg", "value": 40800, "unit": "ng/mL"},
      {"measurement": "concentration at 2 h", "setting": "[4]; iv 10 mg/kg", "value": 24500, "unit": "ng/mL"},
      {"measurement": "concentration at 4 h", "setting": "[4]; iv 10 mg/kg", "value": 6700, "unit": "ng/mL"},
      {"measurement": "concentration at 6 h", "setting": "[4]; iv 10 mg/kg", "value": 2400, "unit": "ng/mL"},
      {"measurement": "concentration at 8 h", "setting": "[4]; iv 10 mg/kg", "value": 1200, "unit": "ng/mL"},
      {"measurement": "concentration at 24 h", "setting": "[4]; iv 10 mg/kg", "value": 100, "unit": "ng/mL"},
      {"measurement": "AUC", "setting": "[4]; iv 10 mg/kg", "value": 144000, "unit": "ng·h/mL"},
      {"measurement": "concentration at 0.5 h", "setting": "[4]; po 10 mg/kg", "value": 5800, "unit": "ng/mL"},
      {"measurement": "concentration at 0.25 h", "setting": "[4]; po 10 mg/kg", "value": 3000, "unit": "ng/mL"},
      {"measurement": "concentration at 5 min", "setting": "[4]; po 10 mg/kg", "value": 500, "unit": "ng/mL"},
      {"measurement": "concentration at 1 h", "setting": "[4]; po 10 mg/kg", "value": 9600, "unit": "ng/mL"},
      {"measurement": "concentration at 2 h", "setting": "[4]; po 10 mg/kg", "value": 7800, "unit": "ng/mL"},
      {"measurement": "concentration at 4 h", "setting": "[4]; po 10 mg/kg", "value": 3100, "unit": "ng/mL"},
      {"measurement": "concentration at 6 h", "setting": "[4]; po 10 mg/kg", "value": 1600, "unit": "ng/mL"},
      {"measurement": "concentration at 8 h", "setting": "[4]; po 10 mg/kg", "value": 700, "unit": "ng/mL"},
      {"measurement": "concentration at 24 h", "setting": "[4]; po 10 mg/kg", "value": 700, "unit": "ng/mL"},
      {"measurement": "AUC", "setting": "[4]; po 10 mg/kg", "value": 51500, "unit": "ng·h/mL"},
      {"measurement": "Mortality, number of dead mice versus number of mice tested", "setting": "ddY mice; i.v. 2,000 mg/kg", "value": "0/5"},
      {"measurement": "Mortality, number of dead mice versus number of mice tested", "setting": "ddY mice; p.o. 4,000 mg/kg", "value": "0/5"}
    ]}
  ]
}
